Values of other authors, collected in patent publication US11576862B2, “Methods and compositions for preparing a silk microsphere” (Trustees of Tufts College, priority 2012, dated 2023).
Structures can show the parent of a compound that is named as a salt.

Compound: CC12CC3CC(C)(C1)CC(N)(C3)C2 [Memantine hydrochloride, 3,5-dimethyltricyclo[3.3.1.1]decan-1amine]
- water solubility: 50 mg/mL
